# Assay results reported in patent US20160199407A1, “HALIDES IN THE TREATMENT OF PATHOGENIC INFECTION” (THE UNIVERSITY OF IOWA RESEARCH FOUNDATION, priority 2008, published 2016).
# Entries after “also recorded” stand apart in the source; their conditions may differ. Where two headings read alike, the source gives them in different places.
# Key:
# [1] = tested on: A2 strain of RSV; test: Cell free exposure of RSV to Duox/LPO system components, then titering; details: 5 min
# [2] = tested on: influenza A (H1N1, A/PR/8/34); assay type: cell-based; details: pH 6.5
# [3] = tested on: eukaryotic cells; details: HOI: at bactericidal concentrations; cited from earlier work
# [4] = tested on: H. influenzae; test: H. influenzae (NTHi) killing on airway epithelial cell cultures with LPO and I^− or SCN^−; assay type: cell-based
# [5] = tested on: primary airway epithelia; details: cited from earlier work
# [6] = tested on: S. aureus; test: S. aureus killing on airway epithelial cell cultures with LPO and I^− or SCN^−; assay type: cell-based
# [7] = tested on: M. haemolytica; test: M. haemolytica killing by AEC cultures; assay type: cell-based
# [8] = I^− accumulation in airway surface fluid after oral KI intake
# [9] = tested on: human AEC; test: HOI generation by AEC, fluorescein absorbance at 508 nm; assay type: cell-based; details: apical ATP (100 μM), I^− (400 μM), LPO (9 μg/ml), fluorescein (16 μM), 3 hours
# [10] = tested on: adenovirus (serotype 5); test: In vitro (cell free) inactivation of adenovirus expressing eGFP; details: 5 min exposure, readout 24 hr later
# [11] = tested on: SARS-CoV (Urbani strain); assay type: cell-based; details: human airway epithelia, 5 MOI, ATP (100 μM), 6.5 mg/mL LPO, NaI, pH 6.5, 24 hr
# [12] = tested on: adenovirus expressing eGFP; test: In situ inactivation of adenovirus on AEC; details: porcine airway epithelia, 50 MOI, ATP (100 μM), 6.5 mg/mL LPO, NaI, PBS pH 6.5
compound,measurement,setting,value
"N#CSO [OSCN^−, hypothiocyanite, reference compound]",Virucidal effects on RSV,[1]; PBS,minimal virucidal effects
same,Influenza viral antigen (NS1),[2],dose dependent decrease
same,Toxicity to eukaryotic cells,[3],not toxic
same,Susceptibility of NTHi,"[4]; AEC cultures, data not shown",resistant
same,Bactericidal activity against H. influenzae,"[4]; airway epithelia, LPO",ineffective
"N#CS [SCN^−, thiocyanate, reference compound]",Rate of apical-to-basolateral leakage,"[5]; Moskwa, 2007",< 10 %/hour
same,Basolateral concentration above which primary airway epithelia secrete the anion,[5]; published data,> 5 µM
same,SCN^− concentration necessary for killing of S. aureus,"[6]; AEC cultures, data not shown",> 120 µM
same,Susceptibility of M. haemolytica to supported antibacterial activity,[7],susceptible
same,Killing of M. haemolytica,"[7]; 250 μM SCN^−, 3 hours",supported killing
same,SCN− in place of I^− in the oxidative mechanism eliminating H. influenzae,"[4]; LPO, epithelial cells, 3 hrs, 500 μM SCN^− controls",cannot replace I^−
"[I-].[K+] [KI, potassium iodide]",Airway surface fluid I^− concentration relative to serum I^− level,[8]; 8 hours after oral 130 mg KI,more than 50 fold
same,Sufficiency to achieve the airway surface fluid I^− level (10-50 μM) necessary for HOI-mediated elimination of bacteria and viruses,[8]; oral 130 mg KI,more than sufficient
same,Time the high airway surface fluid I^− concentration was maintained,[8]; oral 130 mg KI,several hours
same,I^− concentration in airway surface fluid,"[8]; two hours after oral KI tablet (130 mg), human subject",~200 µM
"I [I^−, iodide]",Basolateral concentration above which primary airway epithelia secrete the anion,[5],higher than 1 μM
same,HOI production by AEC,[9],can support HOI production
same,Bacterial survival (S. aureus),"[6]; 50 and 200 μM I^−, LPO (7 μg/ml), epithelial cells, 1000 CFU, 3 hrs",No surviving bacteria
same,I^− concentration supporting complete elimination of S. aureus,"[6]; AEC cultures, data not shown",50 µM
same,I^− concentration at which numbers of surviving S. aureus were lower,"[6]; LPO, airway epithelia, 3 hr",≥ 10 µM
same,I^− concentration giving complete eradication of bacteria (S. aureus),"[6]; LPO, airway epithelia, 3 hr",50 to 200 µM
same,Elimination of M. haemolytica in the presence of I^− as compared to SCN^−,[7],more effective
same,Susceptibility of M. haemolytica to supported antibacterial activity,[7],susceptible
same,Bacterial survival (M. haemolytica),"[7]; LPO and 250 μM I^−, 3 hours",No surviving bacteria
same,Bacterial survival (H. influenzae),"[4]; 200 and 500 μM I−, LPO (7 μg/ml), epithelial cells, 1000 CFU, 3 hrs",No surviving bacteria
same,I^− concentration sufficient to support strong NTHi-killing activity of AEC,"[4]; LPO present, catalase absent, data not shown",≤ 50 µM
same,I^− concentration at which numbers of surviving H. influenzae were lower,"[4]; LPO, airway epithelia, 3 hr",≥ 10 µM
same,I^− concentration giving complete eradication of bacteria (H. influenzae),"[4]; LPO, airway epithelia, 3 hr",50 to 200 µM
OI [HOI],Solution pH at which antiviral effect against RSV was most marked,[1],≤ 6.5
same,Drop in RSV titer,[1]; PBS,5 log
same,Adenovirus inactivation (eGFP expression in transduced A549 cells),[10],inactivated; also recorded: dose-dependent decrease
same,Influenza viral antigen (NS1),[2],dose dependent decrease
same,SARS-CoV inactivation (N gene product immunoreactivity),[11],sufficient H2O2 to support; also recorded: marked reduction
same,Efficiency of HOI producing system against S. aureus versus OSCN^− producing mechanism,"[6]; airway epithelia, LPO",more efficient
same,Toxicity to eukaryotic cells,[3],not toxic
same,Adenovirus inactivation on airway epithelia (GFP expression),[12],sufficient H2O2 to support; also recorded: dose dependent decrease
same,Bactericidal activity against H. influenzae,"[4]; airway epithelia, LPO",strong bactericidal activity
